In patent publication US11890356B2 (The General Hospital Corporation, priority 2017, dated 2024):
Values belong to the compound of their own block, whether it stands above or below them.

Tests used:
[1] = tested on: acetylation state of α-Tubulin and histones (H3K9 and H4K12); test: Acetylation level assay (Western blot) in human iPSC-derived neural progenitor cells; type: cell-based; conditions: ACY1215 5 μM, other compounds 10 μM; 6 h at 37° C.
[2] = biological target: T1, HDAC6 (Rattus norvegicus (Rat), UniProt A0A8I6GM68); test: PET/CT imaging in rats with radiolabeled Example 2; type: in vivo, Sprague-Dawley rats
Description: 8 male Sprague-Dawley rats (Charles River Laboratories) were used for PET imaging. […] For intravenous administration, a catheter with an extension line was placed in a lateral tail vein. Each animal received a bolus injection of either vehicle (1:1:8 DMSO/Tween80/saline) or blocking agent in solution (1 mg/kg, 1 mg/mL in 1:1:8 DMSO/Tween80/saline) immediately prior to injection of the radiotracer.
After injection of a radiotracer bolus (˜700 ρCi Example 2) a 90 min dynamic PET scan was acquired in pairs for all animals. PET scans were performed on a GammaMedica Triumph PET/CT/SPECT scanner, corrected for attenuation with a μ-map derived from the corresponding CT image, which was acquired immediately following the PET scan. The dynamic PET data was binned into 38 timeframes (8×15 s, 8×1 min, 10×2 min, 12×5) and reconstructed individually via an iterative MLEM (maximum likelihood expectation maximization) algorithm in 16 iterations.
PET images were coregistered to the CT image acquired from the same animal using AMIDE Data sets were cropped and all further image analysis was conducted using PMOD 3.3 (PMOD Technologies, Zurich, Switzerland). For maximum consistency, the data were coregistered to the Schiffer Px Rat rat brain template and data was derived from a whole brain VOI (volumes of interest) for time activity curves.

[3] = biological target: T1, HDAC6; test: Autoradiography competition with radiolabeled Example 2 on rat brain slices; type: binding, Sprague-Dawley rat
Description: Sagittal slices of Sprague-Dawley rat brains were sectioned (10 μm) with a cryostat (Thermo Scientific HM550) and mounted onto ColorFrost Plus microscope slides (Fisher Scientific 12-550-18) and stored at −20° C. […] After 15 min, 50 μCi of the radiolabeled compound of Example 2 was added to each bath. After 15 minutes, all slides were washed by dipping 10× into buffer and subsequently submerged in 50 mL baths of buffer at 4° C. for 5 minutes. The slides were dried at 35° C. in a vacuum chamber. A phosphorus screen (Perkin Elmer 7001723) was exposed with the slides for 45 minutes and subsequently imaged with a Cyclone Plus Storage Phosphor (Perkin Elmer) detector. ImageJ was used to apply a Gaussian blur (3.0 radius) smoothing and a lookup table (Royal) with equivalent thresholds for brightness was applied. Raw intensity values from gray and white matter were quantified with the ImageJ measurement tool.

[4] = Microsome stability; conditions: hu
[5] = Hepatocyte stability; conditions: hu
[6] = biological target: HDAC6 (Homo sapiens (Human), UniProt Q9UBN7); test: HDAC IC50 assay by Nanosyn (Caliper microfluidics mobility shift detection); type: biochemical
HDAC6 (Homo sapiens (Human), UniProt Q9UBN7), sequence (Q9UBN7 whole entry): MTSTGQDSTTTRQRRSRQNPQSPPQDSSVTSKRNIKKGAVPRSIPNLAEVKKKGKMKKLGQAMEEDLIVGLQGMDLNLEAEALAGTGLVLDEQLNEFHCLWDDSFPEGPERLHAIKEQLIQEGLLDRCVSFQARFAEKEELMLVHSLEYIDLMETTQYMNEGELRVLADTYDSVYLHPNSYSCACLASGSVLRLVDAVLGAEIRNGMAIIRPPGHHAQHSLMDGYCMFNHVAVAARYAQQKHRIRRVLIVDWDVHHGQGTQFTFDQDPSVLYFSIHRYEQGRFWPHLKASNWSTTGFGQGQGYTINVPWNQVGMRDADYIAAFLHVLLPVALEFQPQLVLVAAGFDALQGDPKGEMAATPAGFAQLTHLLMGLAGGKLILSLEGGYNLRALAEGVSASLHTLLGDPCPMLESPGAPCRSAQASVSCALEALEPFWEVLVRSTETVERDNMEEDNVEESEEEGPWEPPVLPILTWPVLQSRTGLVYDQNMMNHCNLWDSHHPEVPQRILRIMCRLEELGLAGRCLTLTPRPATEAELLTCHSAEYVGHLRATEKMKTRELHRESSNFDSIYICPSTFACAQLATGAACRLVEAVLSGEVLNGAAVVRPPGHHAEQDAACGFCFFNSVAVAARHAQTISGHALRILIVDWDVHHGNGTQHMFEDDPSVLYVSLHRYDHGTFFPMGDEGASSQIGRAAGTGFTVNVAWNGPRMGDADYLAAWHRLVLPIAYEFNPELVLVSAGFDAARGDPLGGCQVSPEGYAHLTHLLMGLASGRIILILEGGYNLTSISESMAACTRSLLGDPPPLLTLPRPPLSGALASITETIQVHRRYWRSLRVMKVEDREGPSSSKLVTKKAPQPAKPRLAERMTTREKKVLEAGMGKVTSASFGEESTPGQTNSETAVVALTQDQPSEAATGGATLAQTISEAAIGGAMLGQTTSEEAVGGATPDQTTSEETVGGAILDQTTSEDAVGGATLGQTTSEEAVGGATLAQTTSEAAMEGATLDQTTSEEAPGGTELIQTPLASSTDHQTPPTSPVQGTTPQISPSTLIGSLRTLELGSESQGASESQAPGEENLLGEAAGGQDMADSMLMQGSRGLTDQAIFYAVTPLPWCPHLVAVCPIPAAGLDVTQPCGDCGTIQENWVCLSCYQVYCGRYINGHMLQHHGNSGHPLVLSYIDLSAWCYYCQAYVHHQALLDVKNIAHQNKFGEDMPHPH

T1 sequence (A0A8I6GM68 whole entry): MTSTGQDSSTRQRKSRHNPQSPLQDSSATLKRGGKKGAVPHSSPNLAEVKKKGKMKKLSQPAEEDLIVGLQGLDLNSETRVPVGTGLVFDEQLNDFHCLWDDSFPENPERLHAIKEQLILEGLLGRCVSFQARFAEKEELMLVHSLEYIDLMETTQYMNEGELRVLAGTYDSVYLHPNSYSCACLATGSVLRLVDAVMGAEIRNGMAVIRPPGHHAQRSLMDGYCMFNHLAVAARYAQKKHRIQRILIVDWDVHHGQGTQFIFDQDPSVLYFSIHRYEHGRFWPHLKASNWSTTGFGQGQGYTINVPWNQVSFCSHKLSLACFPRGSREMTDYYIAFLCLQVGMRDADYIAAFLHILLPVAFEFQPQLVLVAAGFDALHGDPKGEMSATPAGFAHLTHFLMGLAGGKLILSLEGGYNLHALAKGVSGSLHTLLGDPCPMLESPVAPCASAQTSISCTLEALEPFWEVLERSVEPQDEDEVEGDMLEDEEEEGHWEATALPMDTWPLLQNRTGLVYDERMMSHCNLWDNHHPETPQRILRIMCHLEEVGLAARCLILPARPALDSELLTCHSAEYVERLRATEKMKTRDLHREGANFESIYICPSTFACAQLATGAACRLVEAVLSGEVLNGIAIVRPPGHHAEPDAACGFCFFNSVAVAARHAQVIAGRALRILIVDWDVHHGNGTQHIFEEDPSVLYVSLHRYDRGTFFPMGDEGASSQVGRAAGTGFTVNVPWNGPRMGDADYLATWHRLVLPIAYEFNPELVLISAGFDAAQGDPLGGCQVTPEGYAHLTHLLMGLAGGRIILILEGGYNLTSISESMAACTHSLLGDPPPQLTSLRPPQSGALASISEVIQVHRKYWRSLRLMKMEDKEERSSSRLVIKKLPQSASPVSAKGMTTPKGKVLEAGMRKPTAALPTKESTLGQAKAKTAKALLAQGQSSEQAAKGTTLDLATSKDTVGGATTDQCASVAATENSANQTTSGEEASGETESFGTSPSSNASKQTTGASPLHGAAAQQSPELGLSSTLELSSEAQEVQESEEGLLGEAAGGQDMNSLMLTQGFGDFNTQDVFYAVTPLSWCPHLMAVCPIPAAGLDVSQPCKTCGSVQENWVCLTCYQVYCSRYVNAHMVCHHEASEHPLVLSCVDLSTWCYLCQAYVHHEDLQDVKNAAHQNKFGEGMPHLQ

Structure (SMILES): O=C(CCCCCCNC(=O)c1cnc(N(c2ccccc2)c2ccccc2)nc1)NO [ACY-1215, ricolinostat]
Histone acetylation on H4K12 [1]: significantly increased | amount of cellular acetyl-α-Tubulin [1]: increased

Structure (SMILES): CC(=O)Nc1ccc(C(=O)Nc2ccccc2N)cc1 [CI-994, tacedinaline]
Histone acetylation on H3K9 [1]: significantly increased | Histone acetylation on H4K12 [1]: significantly increased | amount of cellular acetyl-α-Tubulin [1]: did not increase

Structure (SMILES): CN(Cc1ccc(C(=O)NO)cc1[18F])CC12CC3CC(CC(C3)C1)C2 [Example 2, 4-((((Adamantan-1-yl)methyl)(methyl)amino)methyl)-3-[^18F]fluoro-N-hydroxybenzamide]
brain uptake and retention ([2]; PET, radiotracer iv bolus): excellent | off-rate in preclinical PET ([2]; rat, in vivo): slow

Structure (SMILES): CN1CCc2c(c3ccccc3n2Cc2ccc(C(=O)NO)cc2)C1 [Tubastatin A]
Histone acetylation on H3K9 [1]: remained unaltered | Histone acetylation on H4K12 [1]: remained unaltered | amount of cellular acetyl-α-Tubulin [1]: increased | binding of radiolabeled Example 2 to rat brain slices in presence of competitor ([3]; competitor at final concentration of 100 μM): reduce the amount of bound radioactivity to the same background as 10 μM Example 1

Structure (SMILES): CN(Cc1ccc(C(=O)NO)cc1F)CC12CC3CC(CC(C3)C1)C2 [Example 1, 4-(((((3s)-Adamantan-1-yl)methyl)(methyl)amino)methyl)-3-fluoro-N-hydroxybenzamide]
Histone acetylation on H3K9 [1]: remained unaltered | Histone acetylation on H4K12 [1]: remained unaltered | amount of cellular acetyl-α-Tubulin [1]: increased | binding of radiolabeled Example 2 to rat brain slices in presence of competitor ([3]; competitor at 1 μM): significantly reduced | effect of pretreatment on brain uptake of radiolabeled Example 2 ([2]; 1 mg/kg immediately prior to radiotracer): blocking of brain uptake | effect on time activity curve of radiolabeled Example 2 ([2]; 1 mg/kg, 30-minutes post radiotracer administration): clear deflection of the time activity curve | Microsome stability (half-life, min) [4]: 19 min | Hepatocyte stability (half-life, min) [5]: 20 (hu) min

IC50 [6]: 290 nM
Structure (SMILES): CC(CC12CC3CC(CC(C3)C1)C2)N(C)Cc1ccc(C(=O)NO)cc1 (centres unmarked) [Example 20]
